Experimental data as given in patent US20160297833A1, “THIENOPYRIMIDINES AS MKNK1 AND MKNK2 INHIBITORS” (BAYER PHARMA AKTIENGESELLSCHAFT, priority 2013, published 2016).

Target: T1, human full-length MKNK1 (Homo sapiens, UniProt Q9BUB5, T385D)
T1 construct: GST (N); purchased Carna Biosciences 02-145; host or cells: insect cells (baculovirus expression system)
Assay: MKNK1 kinase high ATP assay (TR-FRET)
Type: biochemical
Settings: Table 1; MKNK1 kinase high ATP assay, 2 mM ATP; read-out: MKNK1 IC50
Outline: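 Full-length human MKNK1 (T385D) preincubated 15 min at 22 °C with compound in HEPES pH 7.5/MgCl2/DTT buffer; reaction with 2 mM ATP (final) and 0.06 μM biotinylated peptide (final), 30 min at 22 °C.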

T1 sequence (Q9BUB5 1-424 isoform Q9BUB5-2 T344D): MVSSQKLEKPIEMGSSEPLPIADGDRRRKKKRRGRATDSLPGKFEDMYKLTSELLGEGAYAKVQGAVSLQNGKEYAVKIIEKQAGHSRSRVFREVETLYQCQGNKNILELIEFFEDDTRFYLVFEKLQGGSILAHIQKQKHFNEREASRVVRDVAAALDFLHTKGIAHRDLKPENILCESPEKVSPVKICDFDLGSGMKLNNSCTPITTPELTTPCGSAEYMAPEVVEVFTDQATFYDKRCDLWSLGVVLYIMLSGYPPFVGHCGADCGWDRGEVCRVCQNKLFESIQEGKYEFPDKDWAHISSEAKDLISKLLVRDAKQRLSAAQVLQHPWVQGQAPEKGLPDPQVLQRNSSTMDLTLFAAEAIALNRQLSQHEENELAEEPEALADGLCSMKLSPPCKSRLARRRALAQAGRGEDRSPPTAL

In order of rising IC50:
1. CC(C)OC(=O)NCCOc1cc2[nH]ncc2cc1Nc1ncnc2sc3c(c12)CC[C@H](C(=O)N(C)C)C3 [Example 260, Propan-2-yl {2-[(5-{[(7S)-7-(dimethylcarbamoyl)-5,6,7,8-tetrahydro[1]benzothieno[2,3-d]pyrimidin-4-yl]amino}-1H-indazol-6-yl)oxy]ethyl}carbamate]  0.2 nM
2. CCOC(=O)NCCOc1cc2[nH]ncc2cc1Nc1ncnc2sc3c(c12)CC[C@H](C(=O)N(C)C)C3 [Example 262, Ethyl {2-[(5-{[(7S)-7-(dimethylcarbamoyl)-5,6,7,8-tetrahydro[1]benzothieno[2,3-d]pyrimidin-4-yl]amino}-1H-indazol-6-yl)oxy]ethyl}carbamate]  0.2 nM
3. C[C@H]1COCCN1C(=O)[C@H]1CCc2c(sc3ncnc(Nc4cc5cn[nH]c5cc4OC4CN(C(=O)OC(C)(C)C)C4)c23)C1 [Example 267, tert-Butyl 3-[(5-{[(7S)-7-{[(3S)-3-methylmorpholin-4-yl]carbonyl}-5,6,7,8-tetrahydro[1]benzothieno[2,3-d]pyrimidin-4-yl]amino}-1H-indazol-6-yl)oxy]azetidine-1-carboxylate]  0.3 nM
4. CN(C)C(=O)[C@H]1CCc2c(sc3ncnc(Nc4cc5cn[nH]c5cc4OCCNC(=O)CC4CCCCC4)c23)C1 [Example 274, (7S)-4-[(6-{2-[(Cyclohexylacetyl)amino]ethoxy}-1H-indazol-5-yl)amino]-N,N-dimethyl-5,6,7,8-tetrahydro[1]benzothieno[2,3-d]pyrimidine-7-carboxamide]  0.3 nM
5. COC(=O)NCCOc1cc2[nH]ncc2cc1Nc1ncnc2sc3c(c12)CC[C@H](C(=O)N(C)C)C3 [Example 258, Methyl {2-[(5-{[(7S)-7-(dimethylcarbamoyl)-5,6,7,8-tetrahydro[1]benzothieno[2,3-d]pyrimidin-4-yl]amino}-1H-indazol-6-yl)oxy]ethyl}carbamate]  0.4 nM
6. CN(C)C(=O)[C@H]1CCc2c(sc3ncnc(Nc4cc5cn[nH]c5cc4OCCNC(=O)CC4CCCC4)c23)C1 [Example 273, (7S)-4-[(6-{2-[(Cyclopentylacetyl)amino]ethoxy}-1H-indazol-5-yl)amino]-N,N-dimethyl-5,6,7,8-tetrahydro[1]benzothieno[2,3-d]pyrimidine-7-carboxamide]  0.4 nM
7. CC(C)CC(=O)NCCOc1cc2[nH]ncc2cc1Nc1ncnc2sc3c(c12)CC[C@H](C(=O)N(C)C)C3 [Example 271, (7S)—N,N-Dimethyl-4-[(6-{2-[(3-methylbutanoyl)amino]ethoxy}-1H-indazol-5-yl)amino]-5,6,7,8-tetrahydro[1]benzothieno[2,3-d]pyrimidine-7-carboxamide]  0.5 nM
8. C[C@H]1COCCN1C(=O)[C@H]1CCc2c(sc3ncnc(Nc4cc5cn[nH]c5cc4OC4CNC4)c23)C1 [Example 268, [(7S)-4-{[6-(Azetidin-3-yloxy)-1H-indazol-5-yl]amino}-5,6,7,8-tetrahydro[1]benzothieno[2,3-d]pyrimidin-7-yl][(3S)-3-methylmorpholin-4-yl]methanone]  0.6 nM
9. CN(C)C(=O)[C@H]1CCc2c(sc3ncnc(Nc4cc5cn[nH]c5cc4OC4CN(C(=O)OC(C)(C)C)C4)c23)C1 [Example 265, tert-Butyl 3-[(5-{[(7S)-7-(dimethylcarbamoyl)-5,6,7,8-tetrahydro[1]benzothieno[2,3-d]pyrimidin-4-yl]amino}-1H-indazol-6-yl)oxy]azetidine-1-carboxylate]  0.9 nM
10. C[C@@H]1CN(C(=O)[C@H]2CCc3c(sc4ncnc(Nc5cc6cn[nH]c6cc5OC5CN(C(=O)OC(C)(C)C)C5)c34)C2)C[C@H](C)O1 [Example 266, tert-Butyl 3-[(5-{[(7S)-7-{[(2R,6S)-2,6-dimethylmorpholin-4-yl]carbonyl}-5,6,7,8-tetrahydro[1]benzothieno[2,3-d]pyrimidin-4-yl]amino}-1H-indazol-6-yl)oxy]azetidine-1-carboxylate]  0.9 nM
11. CCCC(=O)NCCOc1cc2[nH]ncc2cc1Nc1ncnc2sc3c(c12)CC[C@H](C(=O)N(C)C)C3 [Example 270, (7S)-4-({6-[2-(Butanoylamino)ethoxy]-1H-indazol-5-yl}amino)-N,N-dimethyl-5,6,7,8-tetrahydro[1]benzothieno[2,3-d]pyrimidine-7-carboxamide]  1.1 nM
12. COC(=O)NC[C@@H](C)Oc1cc2[nH]ncc2cc1Nc1ncnc2sc3c(c12)CC[C@H](C(=O)N(C)C)C3 [Example 264, Methyl {(2R)-2-[(5-{[(7S)-7-(dimethylcarbamoyl)-5,6,7,8-tetrahydro[1]benzothieno[2,3-d]pyrimidin-4-yl]amino}-1H-indazol-6-yl)oxy]propyl}carbamate]  1.2 nM
13. CSc1cc2[nH]ncc2cc1Nc1ncnc2sc3c(c12)CC[C@H](C(=O)N1CCOC[C@@H]1C)C3 [Example 254, [(3S)-3-Methylmorpholin-4-yl][(7S)-4-{[6-(methylsulfanyl)-1H-indazol-5-yl]amino}-5,6,7,8-tetrahydro[1]benzothieno[2,3-d]pyrimidin-7-yl]methanone]  1.3 nM
14. CCC(=O)NCCOc1cc2[nH]ncc2cc1Nc1ncnc2sc3c(c12)CC[C@H](C(=O)N(C)C)C3 [Example 269, (7S)—N,N-Dimethyl-4-({6-[2-(propanoylamino)ethoxy]-1H-indazol-5-yl}amino)-5,6,7,8-tetrahydro[1]benzothieno[2,3-d]pyrimidine-7-carboxamide]  1.3 nM
15. CN(C)C(=O)[C@H]1CCc2c(sc3ncnc(Nc4cc5cn[nH]c5cc4OCCNC(=O)CC(C)(C)C)c23)C1 [Example 272, (7S)-4-[(6-{2-[(3,3-Dimethylbutanoyl)amino]ethoxy}-1H-indazol-5-yl)amino]-N,N-dimethyl-5,6,7,8-tetrahydro[1]benzothieno[2,3-d]pyrimidine-7-carboxamide]  1.3 nM
16. CSc1cc2[nH]ncc2cc1Nc1ncnc2sc3c(c12)CC[C@H](C(=O)N(C)C(C)C)C3 [Example 251, (7S)—N-Methyl-4-{[6-(methylsulfanyl)-1H-indazol-5-yl]amino}-N-(propan-2-yl)-5,6,7,8-tetrahydro[1]benzothieno[2,3-d]pyrimidine-7-carboxamide]  1.5 nM
17. CSc1cc2[nH]ncc2cc1Nc1ncnc2sc3c(c12)CC[C@H](C(=O)N1C[C@@H](C)O[C@@H](C)C1)C3 [Example 252, [(2R,6S)-2,6-Dimethylmorpholin-4-yl][(7S)-4-{[6-(methylsulfanyl)-1H-indazol-5-yl]amino}-5,6,7,8-tetrahydro[1]benzothieno[2,3-d]pyrimidin-7-yl]methanone]  1.5 nM
18. CCOC(=O)NC[C@@H](C)Oc1cc2[nH]ncc2cc1Nc1ncnc2sc3c(c12)CC[C@H](C(=O)N(C)C)C3 [Example 263, Ethyl {(2R)-2-[(5-{[(7S)-7-(dimethylcarbamoyl)-5,6,7,8-tetrahydro[1]benzothieno[2,3-d]pyrimidin-4-yl]amino}-1H-indazol-6-yl)oxy]propyl}carbamate]  1.6 nM
19. COCCN(C)C(=O)[C@H]1CCc2c(sc3ncnc(Nc4cc5cn[nH]c5cc4SC)c23)C1 [Example 253, (7S)—N-(2-Methoxyethyl)-N-methyl-4-{[6-(methylsulfanyl)-1H-indazol-5-yl]amino}-5,6,7,8-tetrahydro[1]benzothieno[2,3-d]pyrimidine-7-carboxamide]  1.9 nM
20. CSc1cc2[nH]ncc2cc1Nc1ncnc2sc3c(c12)CC[C@H](C(=O)N1CCOCC1)C3 [Example 255, [(7S)-4-{[6-(Methylsulfanyl)-1H-indazol-5-yl]amino}-5,6,7,8-tetrahydro[1]benzothieno[2,3-d]pyrimidin-7-yl](morpholin-4-yl)methanone]  2 nM
21. CN(C)C(=O)[C@H]1CCc2c(sc3ncnc(Nc4cc5cn[nH]c5cc4OCCNC(=O)C(C)(C)C)c23)C1 [Example 257, (7S)-4-[(6-{2-[(2,2-Dimethylpropanoyl)amino]ethoxy}-1H-indazol-5-yl)amino]-N, N-dimethyl-5,6,7,8-tetrahydro[1]benzothieno[2,3-d]pyrimidine-7-carboxamide]  2.4 nM
22. CC(C)OC(=O)NC[C@@H](C)Oc1cc2[nH]ncc2cc1Nc1ncnc2sc3c(c12)CC[C@H](C(=O)N(C)C)C3 [Example 261, Propan-2-yl {(2R)-2-[(5-{[(7S)-7-(dimethylcarbamoyl)-5,6,7,8-tetrahydro[1]benzothieno[2,3-d]pyrimidin-4-yl]amino}-1H-indazol-6-yl)oxy]propyl}carbamate]  3.2 nM
23. CN(C)C(=O)[C@H]1CCc2c(sc3ncnc(Nc4cc5cn[nH]c5cc4OCCNCC(C)(C)C)c23)C1 [Example 275, (7S)-4-[(6-{2-[(2,2-Dimethylpropyl)amino]ethoxy}-1H-indazol-5-yl)amino]-N,N-dimethyl-5,6,7,8-tetrahydro[1]benzothieno[2,3-d]pyrimidine-7-carboxamide]  4.4 nM
24. CN(C)C(=O)[C@H]1CCc2c(sc3ncnc(Nc4cc5cn[nH]c5cc4OCCCN4CC(F)C4)c23)C1 [Example 276, (7S)-4-({6-[3-(3-Fluoroazetidin-1-yl)propoxy]-1H-indazol-5-yl}amino)-N,N-dimethyl-5,6,7,8-tetrahydro[1]benzothieno[2,3-d]pyrimidine-7-carboxamide]  10.2 nM
25. C[C@H](CNC(=O)OC(C)(C)C)Oc1cc2[nH]ncc2cc1Nc1ncnc2sc3c(c12)CC[C@H](C(=O)N(C)C)C3 [Example 259, tert-Butyl {(2R)-2-[(5-{[(7S)-7-(dimethylcarbamoyl)-5,6,7,8-tetrahydro[1]benzothieno[2,3-d]pyrimidin-4-yl]amino}-1H-indazol-6-yl)oxy]propyl}carbamate]  14.5 nM
26. CN(C)C(=O)[C@H]1CCc2c(sc3ncnc(Nc4cc5cn[nH]c5cc4OCCN(C)C(=O)OC(C)(C)C)c23)C1 [Example 256, tert-Butyl {2-[(5-{[(7S)-7-(dimethylcarbamoyl)-5,6,7,8-tetrahydro[1]benzothieno[2,3-d]pyrimidin-4-yl]amino}-1H-indazol-6-yl)oxy]ethyl}methylcarbamate]  43.3 nM
